Measured values taken from patent publication US6632794B1, “Insulin-like growth factor agonist molecules” (Genentech, Inc., priority 1997, dated 2003).
Where two headings read alike, the source gives them in different places. Starred links: 1 amine or outer side, 2 acyl side, 3 side chain; linkers in the order of their positions; H or OH if unused. Positions of bridges follow the written chain, without caps; N, C: chain ends. Residues, ends and D or L forms follow the SMILES beside them. No end group written: not given here. Suc = O=C(CCC(=O)[*:2])[*:1]

Biological target: IGFBP-3 (Homo sapiens, UniProt P17936)
Sequence (P17936 28-291): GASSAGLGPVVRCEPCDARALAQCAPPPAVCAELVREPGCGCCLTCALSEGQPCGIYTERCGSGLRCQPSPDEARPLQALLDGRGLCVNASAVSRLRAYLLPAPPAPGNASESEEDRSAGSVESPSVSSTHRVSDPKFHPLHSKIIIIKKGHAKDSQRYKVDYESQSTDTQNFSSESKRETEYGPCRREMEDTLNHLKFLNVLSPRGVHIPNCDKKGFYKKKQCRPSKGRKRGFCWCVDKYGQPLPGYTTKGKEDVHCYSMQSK
Assay: BIAcore competition assay, IGFBP-3 binding to immobilized IGF-I
Settings: for IGF-I Inhibition IC50 (mut)/IC50 (wt): bp3-01-ox variants by BIAcore, wt = bp3-01-ox
Procedure: A. BIAcore™ Competition Assay (for IGFBP-3 Binders)
IGF-I was immobilized on a dextran chip for inhibition assays using a BIAcore™ 2000 surface-plasmon-resonance device (BIAcore, Inc., Piscataway, N.J.) to measure free binding protein. […] Serial dilutions of peptide were mixed with a constant concentration (40 nM) of IGFBP-3. After incubation for >1 hour at room temperature, an aliquot of 20 μL was injected at a flow rate of 20 μL/min over the IGF-I chip. Following the injection, a response reading was taken to measure the relative amount of IGFBP-3 bound to the IGF-I.

[1] = 40 nM IGFBP-3, 400 to 800 RU immobilized IGF-I, read-out: BIAcore Assay IC50, inhibition of IGF-I binding to IGFBP-3
[2] = bp3-01-ox variants by BIAcore competition assay, read-out: IGF-I Inhibition IC50

Compound	IC50 [1] [µM]	IC50 [2] [µM]	IGF-I Inhibition IC50 (mut)/IC50 (wt)	other results
CC[C@H](C)[C@@H]1NC(=O)[C@H](C(C)C)NC(=O)[C@H](Cc2ccc(O)cc2)NC(=O)CNC(=O)[C@@H]2CCCN2C(=O)CNC(=O)[C@H](CCC(=O)O)NC(=O)[C@H](Cc2ccccc2)NC(=O)[C@@H](NC(=O)[C@H](CCC(=O)O)NC(=O)[C@H](CO)NC(=O)[C@H](CCC(=O)O)NC(=O)[C@@H](N)CCC(=O)O)CSSC[C@@H](C(=O)NCC(=O)N[C@@H](CC(C)C)C(=O)N[C@H](C(=O)NCC(=O)O)C(C)C)NC1=O [BP3-4B3.3] (H-EESECFEGPGYVICGLVG-OH; disulfide 5-14; N-terminus and C-terminus assumed)	80	–	–	–
CC[C@H](C)[C@@H]1NC(=O)[C@@H](NC(=O)[C@@H](NC(=O)[C@H](Cc2c[nH]c3ccccc23)NC(=O)CNC(=O)[C@H](CC(=O)O)NC(=O)[C@H](CC(C)C)NC(=O)[C@@H](N)CCC(=O)O)C(C)C)CSSC[C@@H](C(=O)N[C@@H](Cc2ccc(O)cc2)C(=O)N[C@@H](CC(C)C)C(=O)N[C@@H](C)C(=O)N[C@@H](CCC(=O)O)C(=O)NCC(N)=O)NC(=O)[C@H](CC(C)C)NC(=O)[C@H](CC(N)=O)NC(=O)[C@H](CCC(N)=O)NC(=O)[C@H](CCC(=O)O)NC(=O)CNC(=O)[C@H](C(C)C)NC(=O)[C@H](CCCCN)NC1=O [BP3-23] (H-ELDGWVCIKVGEQNLCYLAEG-NH2; disulfide 7-16; N-terminus assumed)	220	–	–	–
CC(C)C[C@H](NC(=O)[C@@H](NC(=O)[C@H](Cc1ccc(O)cc1)NC(=O)[C@@H]1CSSC[C@H](NC(=O)[C@@H](NC(=O)[C@@H](NC(=O)[C@H](CCCCN)NC(=O)[C@H](Cc2ccccc2)NC(=O)[C@@H](N)Cc2c[nH]c3ccccc23)[C@@H](C)O)C(C)C)C(=O)N[C@@H](Cc2ccc(O)cc2)C(=O)N[C@@H](CCC(=O)O)C(=O)N[C@@H](Cc2c[nH]c3ccccc23)C(=O)N[C@@H](CCC(=O)O)C(=O)N[C@@H](CC(=O)O)C(=O)N[C@@H](CCC(=O)O)C(=O)N[C@@H](C(C)C)C(=O)N[C@@H](CCC(N)=O)C(=O)N1)[C@@H](C)O)C(=O)N[C@@H](CCC(=O)O)C(=O)N[C@@H](CCC(=O)O)C(=O)NCC(N)=O [BP3-24] (H-WFKTVCYEWEDEVQCYTLEEG-NH2; disulfide 6-15)	100 to 300	–	–	–
CC[C@H](C)[C@H](NC(=O)[C@H](Cc1ccc(O)cc1)NC(=O)[C@H](C)NC(=O)CNC(=O)[C@@H](NC(=O)[C@@H](N)CCCNC(=N)N)C(C)C)C(=O)N[C@@H](CO)C(=O)N[C@H]1CSSC[C@@H](C(=O)N[C@@H](Cc2c[nH]c3ccccc23)C(=O)N[C@H](C(=O)N[C@@H](CCC(=O)O)C(=O)N[C@@H](CC(=O)O)C(=O)N[C@@H](CC(C)C)C(=O)N[C@@H](CC(C)C)C(=O)N[C@@H](CC(=O)O)C(=O)NCC(N)=O)C(C)C)NC(=O)[C@H](CCC(=O)O)NC(=O)[C@H]([C@@H](C)O)NC(=O)[C@H](CCC(=O)O)NC(=O)[C@H](CO)NC1=O [BP3-25] (H-RVGAYISCSETECWVEDLLDG-NH2; disulfide 8-13)	> 1000	–	–	–
CSCC[C@H](NC(=O)[C@@H]1CSSC[C@H](NC(=O)[C@H](CC(=O)O)NC(=O)[C@@H](NC(=O)CNC(=O)[C@@H](N)[C@@H](C)O)C(C)C)C(=O)N[C@@H](CCC(N)=O)C(=O)N[C@H]2CSSC[C@H](NC(=O)[C@H](Cc3c[nH]cn3)NC(=O)[C@H](C(C)C)NC(=O)[C@@H]3CCCN3C(=O)CNC2=O)C(=O)N[C@@H](C(C)C)C(=O)N1)C(=O)N[C@@H](CC(=O)O)C(=O)N[C@@H](Cc1c[nH]c2ccccc12)C(=O)N[C@@H](C)C(=O)O [BP06, TGVDCQC*GPVHC*VCMDWA] (H-TGVDCQCGPVHCVCMDWA-OH; disulfide 5-14, 7-12; N-terminus and C-terminus assumed)	–	–	–	IC50: 5 µM
CSCC[C@@H]1NC(=O)[C@H](Cc2ccc(O)cc2)NC(=O)[C@@H]2CSSC[C@H](NC(=O)[C@H](CC(C)C)NC(=O)[C@@H]3CCCN3C1=O)C(=O)N[C@@H](CC(C)C)C(=O)N[C@H](C(=O)N[C@@H](Cc1ccc(O)cc1)C(=O)N[C@@H](CC(=O)O)C(=O)N[C@@H](CO)C(=O)N[C@@H](CC(=O)O)C(=O)O)CSSC[C@H](NC(=O)[C@H](CC(N)=O)NC(=O)[C@H](C)NC(=O)[C@@H](NC(=O)[C@@H](N)[C@@H](C)O)C(C)C)C(=O)N[C@@H](CC(=O)O)C(=O)N2 [BP08, TVANCDC*YMPLC*LCYDSD] (H-TVANCDCYMPLCLCYDSD-OH; disulfide 5-14, 7-12; N-terminus and C-terminus assumed)	–	–	–	IC50: 15 µM
CC[C@H](C)[C@@H]1NC(=O)[C@H](Cc2ccc(O)cc2)NC(=O)CNC(=O)[C@H](CCC(N)=O)NC(=O)[C@H](CC(=O)O)NC(=O)[C@H](Cc2c[nH]cn2)NC(=O)[C@H](CCCNC(=N)N)NC(=O)[C@H](CC(=O)O)NC(=O)[C@H](Cc2c[nH]c3ccccc23)NC(=O)[C@@H](N)CSSC[C@@H](C(=O)N[C@H](C(=O)N[C@H](C(=O)N[C@@H](CC(=O)O)C(=O)N[C@@H](CO)C(=O)O)[C@@H](C)O)[C@@H](C)O)NC1=O [BP13] (H-CWDRHDQGYICTTDS-OH; disulfide 1-11)	> 1000	–	–	–
CC(C)C[C@@H]1NC(=O)[C@H](Cc2ccc(O)cc2)NC(=O)[C@H](Cc2c[nH]c3ccccc23)NC(=O)[C@H](CCC(=O)O)NC(=O)[C@H](C)NC(=O)[C@H](C(C)C)NC(=O)[C@@H]2CCCN2C(=O)[C@H](Cc2c[nH]c3ccccc23)NC(=O)[C@@H](NC(=O)[C@@H](NC(=O)[C@@H](N)CCC(=O)O)C(C)C)CSSC[C@@H](C(=O)N[C@@H](CC(N)=O)C(=O)O)NC1=O [bp3-27] (H-EVCWPVAEWYLCN-OH; disulfide 3-12; N-terminus and C-terminus assumed)	–	2.8	1.4	–
CC(C)C[C@@H]1NC(=O)[C@H](Cc2ccc(O)cc2)NC(=O)[C@H](Cc2c[nH]c3ccccc23)NC(=O)[C@H](CCC(=O)O)NC(=O)[C@H](C)NC(=O)[C@H](C(C)C)NC(=O)[C@@H]2CCCN2C(=O)[C@H](Cc2c[nH]c3ccccc23)NC(=O)[C@@H](NC(=O)[C@@H](NC(=O)[C@H](CCC(=O)O)NC(=O)[C@@H](N)CCC(=O)O)C(C)C)CSSC[C@@H](C(=O)N[C@@H](CC(N)=O)C(=O)O)NC1=O [bp3-28] (H-EEVCWPVAEWYLCN-OH; disulfide 4-13 (inferred); N-terminus and C-terminus assumed)	–	5.4	2.7	–
CC(C)C[C@@H]1NC(=O)[C@H](Cc2ccc(O)cc2)NC(=O)[C@H](Cc2c[nH]c3ccccc23)NC(=O)[C@H](CCC(=O)O)NC(=O)[C@H](C)NC(=O)[C@H](C(C)C)NC(=O)[C@@H]2CCCN2C(=O)[C@H](Cc2c[nH]c3ccccc23)NC(=O)[C@@H](NC(=O)[C@@H](NC(=O)[C@H](CCC(=O)O)NC(=O)[C@H](CCC(=O)O)NC(=O)[C@H](CO)NC(=O)[C@H](C)N)C(C)C)CSSC[C@@H](C(=O)N[C@@H](CC(N)=O)C(=O)O)NC1=O [bp3-30] (H-ASEEVCWPVAEWYLCN-OH; disulfide 6-15; N-terminus and C-terminus assumed)	–	5.6	2.8	–
CC(C)C[C@@H]1NC(=O)[C@H](Cc2ccc(O)cc2)NC(=O)[C@H](Cc2c[nH]c3ccccc23)NC(=O)[C@H](CCC(=O)O)NC(=O)[C@H](C)NC(=O)[C@H](C(C)C)NC(=O)[C@@H]2CCCN2C(=O)[C@H](Cc2c[nH]c3ccccc23)NC(=O)[C@@H](NC(=O)[C@@H](NC(=O)[C@H](CCC(=O)O)NC(=O)[C@H](CCC(=O)O)NC(=O)[C@@H](N)CO)C(C)C)CSSC[C@@H](C(=O)N[C@@H](CC(N)=O)C(N)=O)NC1=O [bp3-39] (H-SEEVCWPVAEWYLCN-NH2; disulfide 5-14 (inferred); N-terminus assumed)	–	0.66	0.33	–
CC(=O)N[C@@H](CO)C(=O)N[C@@H](CCC(=O)O)C(=O)N[C@@H](CCC(=O)O)C(=O)N[C@H](C(=O)N[C@H]1CSSC[C@@H](C(=O)N[C@@H](CC(N)=O)C(N)=O)NC(=O)[C@H](CC(C)C)NC(=O)[C@H](Cc2ccc(O)cc2)NC(=O)[C@H](Cc2c[nH]c3ccccc23)NC(=O)[C@H](CCC(=O)O)NC(=O)[C@H](C)NC(=O)[C@H](C(C)C)NC(=O)[C@@H]2CCCN2C(=O)[C@H](Cc2c[nH]c3ccccc23)NC1=O)C(C)C [bp3-40] (Ac-SEEVCWPVAEWYLCN-NH2; disulfide 5-14 (inferred))	–	0.66	0.33	–
CC(C)C[C@@H]1NC(=O)[C@H](Cc2ccc(O)cc2)NC(=O)[C@H](Cc2c[nH]c3ccccc23)NC(=O)[C@H](CCC(=O)O)NC(=O)[C@H](C)NC(=O)[C@H](C(C)C)NC(=O)[C@@H]2CCCN2C(=O)[C@H](Cc2c[nH]c3ccccc23)NC(=O)[C@@H](NC(=O)[C@@H](NC(=O)[C@H](CCC(=O)O)NC(=O)[C@@H]2CCCN2C(=O)CN)[C@@H](C)O)CSSC[C@@H](C(=O)N[C@@H](CC(N)=O)C(=O)O)NC1=O [bp3-41] (H-GPETCWPVAEWYLCN-OH; disulfide 5-14; N-terminus and C-terminus assumed)	–	4	2.0	–
CC[C@H](C)[C@H](NC(=O)CCC(=O)O)C(=O)N1CCC[C@H]1C(=O)N[C@H](C(=O)N[C@@H](CO)C(=O)N1CCC[C@H]1C(=O)N[C@@H](CC(=O)O)C(=O)N[C@@H](Cc1c[nH]c2ccccc12)C(=O)N[C@@H](Cc1ccccc1)C(=O)N[C@H](C(=O)N[C@@H](CS)C(=O)N[C@@H](CCC(N)=O)C(N)=O)C(C)C)C(C)C [bp3-108] (Suc-IPVSPDWFVCQ-NH2)	–	–	–	IC50 (BIAcore competition, read-out: IC50, inhibition of IGFBP-3 binding to IGF-I): 20 µM
WPVAEWYLCN [bp3-24]	–	> 1000	–	–
